{"source": "patent US9018173B2", "about": "“Materials and methods for suppressing inflammatory and neuropathic pain” (Indiana University Research and Technology Corp., priority 2010, dated 2015)", "key": {"[1]": {"test_system": "tail kinking and body contortion", "assay": "Observation of side-effects after i.p. injection in rats", "format": "in vivo, rat", "settings": "20 mg/kg i.p.", "text": "Referring now to FIG. 24. Biodistribution and side-effects of TAT-CBD3. […] Oxygenated blood was collected from a cardiac puncture. […] The 95% confidence limits are also indicated."}, "[2]": {"test_system": "capsaicin-induced meningeal blood flow changes", "settings": "read-out: IC50 of percent inhibition of capsaicin-induced blood flow; dural application; versus averaged TAT-scramble; n=4-5"}, "[3]": {"test_system": "anxiety-associated behavior", "assay": "Elevated plus maze (EPM)", "format": "in vivo, C57BL6 mice", "settings": "for Elevated Plus Maze: Closed arm entries / Elevated Plus Maze: Closed arm latency to enter / Elevated Plus Maze: Closed arm latency to exit / Elevated Plus Maze: Open arm entries / Elevated Plus Maze: Open arm latency to enter / Elevated Plus Maze: Open arm latency to exit: C57BL6 mice, 1 h after injection, 5 min test"}, "[4]": {"test_system": "formalin-induced nocifensive behavior", "assay": "Formalin test", "format": "in vivo, rat", "settings": "30 μM intraplantar, 30 min before formalin", "method": "Referring now to FIG. 16. TAT-CBD3 reduces acute, inflammatory and neuropathic pain. (FIG. 16A) Time course of number of flinches following subcutaneous (dorsal surface of paw) injection of formalin (2.5%; 50 μl saline) in animals pretreated with peptides (3-100 μM; 20 μl dorsal surface of paw) 30 min before formalin (n=4-10). (FIG. 16B) The effect of peptides on number of flinches on formalin-induced phase 1 (0-10 min) and phase 2 (15-60 min). *, p<0.05 versus formalin-injected animals. (FIG. 16C) Formalin induces paw edema. Paw thickness was measured 1 h after injection of saline, formalin, and formalin+peptides (100 μM). *, p<0.05 versus saline-injected animals. (FIG. 16D) Pretreatment with TAT-CBD3 attenuates capsaicin-evoked nocifensive behavior. Vehicle (0.3% DMSO) or peptides (concentrations as indicated) in saline (40 μL) was instilled corneally and nocifensive behavior noted. […]\nBehavioral analyses. […] For the eye-wipe test, vehicle, TAT control or TAT CBD3 peptides (30 μM, 40 μl) were pipetted directly into the right eye and the resulting nocifensive behavior was measured. […] This nocifensive behavior was recorded for five minutes and followed by capsaicin (3 μM; 40 μl saline) application into the pretreated eye. […]"}, "[5]": {"test_system": "cortical layer V pyramidal neurons", "assay": "Cortical slice recordings of evoked EPSCs", "format": "cell-based, CD1 mice", "settings": "10 μM"}, "[6]": {"test_system": "CRMP-2 binding to L1 and Ct-dis regions of CaV2.2", "assay": "In vitro binding of L1-GST and Ct-dis-GST fusion proteins to CRMP-2", "design": "species or system rat", "settings": "peptides 10 μM", "text": "In Vitro Protein Binding Assays. Using Vector NTI (v. 11; Invitrogen) software, primers were designed to amplify regions corresponding to the first cytoslic loop (L1; amino acids 356 to 483) and the distal end of the C-terminus (Ct-dis; amino acids 2133 to 2348) of rat CaV2.2 cDNA from P3 rat brain cDNA. The primers harbored restriction sites (Bam HI or Bgl II (5′) and Eco RI or Mfe I (3′)) to facilitate cloning into […]. In addition to the GST-tag, this vector contains the Glu tag, a sequence of six amino acids (EYMPME). Correctly-amplified PCR products and parent pGex-3x-Glu vector were digested with the indicated restriction enzymes, and then extracted following electrophoresis on an agarose gel. The extracted DNAs were quantified (Nanodrop 1000, Thermo Scientific), and ligations were performed using 6:1 and 3:1 insert to vector molar ratios. […]\nMonoclonal Glu antibody-saturated Protein G beads (GE Healthcare) carrying various CaV2.2 cytoplasmic loop constructs were incubated with rat brain synaptosome protein in the presence of TAT control or TAT CBD3 peptides (10 μM) in a total reaction volume of 400 μl. […] The samples were then washed three times with a 1000-fold excess of binding buffer, and the proteins were eluted in 40 μl of SDS gel buffer and boiled for 5 min, after which 20 μl of each assay was run on SDS-PAGE and analyzed by immunoblotting with CRMP-2."}}, "note": "Entries after “also recorded” stand apart in the source; their conditions may differ. Residues, ends and D or L forms follow the SMILES beside them.", "data": [{"molecule": "CC(C)C[C@H](NC(=O)CNC(=O)[C@H](CCCNC(=N)N)NC(=O)[C@@H]1CCCN1C(=O)[C@@H](NC(=O)CNC(=O)[C@H](CCCNC(=N)N)NC(=O)[C@H](CC(C)C)NC(=O)[C@H](CCC(=O)O)NC(=O)[C@H](C)NC(=O)[C@H](CC(C)C)NC(=O)[C@H](CCCNC(=N)N)NC(=O)[C@H](CO)NC(=O)[C@H](CCCNC(=N)N)NC(=O)[C@H](C)NC(=O)[C@H](CCCNC(=N)N)NC(=O)[C@H](CCCNC(=N)N)NC(=O)[C@H](CCCNC(=N)N)NC(=O)[C@H](CCC(N)=O)NC(=O)[C@H](CCCNC(=N)N)NC(=O)[C@H](CCCNC(=N)N)NC(=O)[C@H](CCCCN)NC(=O)[C@H](CCCCN)NC(=O)[C@H](CCCNC(=N)N)NC(=O)CNC(=O)[C@@H](N)Cc1ccc(O)cc1)C(C)C)C(=O)O", "note": "[TAT-CBD3] (H-YGRKKRRQRRRARSRLAELRGVPRGL-OH; N-terminus and C-terminus assumed)", "values": [{"measurement": "duration of contortion and tail kinking", "setting": "[1]", "result": "dissipated fifteen seconds following their first appearance"}, {"measurement": "onset of contortion and tail kinking after injection", "setting": "[1]", "result": "about 15 seconds"}, {"measurement": "side-effects observed", "setting": "[1]", "result": "whole-body lordosis-like contortion (black arrow) and tail kinking; also recorded: Transient contortions were observed"}, {"measurement": "number of episodes of contortion and tail kinking", "setting": "[1]; 60 min observation", "result": "Only a single episode of contortion and tail kinking movement"}, {"measurement": "IC50", "setting": "[2]", "result": "3.1 ± 1.1", "unit": "µM"}, {"measurement": "Elevated Plus Maze: Closed arm entries", "setting": "[3]; 0.1 mg/kg i.p.", "result": "19.1 ± 1.4"}, {"measurement": "Elevated Plus Maze: Closed arm latency to enter", "setting": "[3]; 0.1 mg/kg i.p.", "result": "4.5 ± 2.2", "unit": "s"}, {"measurement": "Elevated Plus Maze: Closed arm latency to exit", "setting": "[3]; 0.1 mg/kg i.p.", "result": "14.9 ± 2.9", "unit": "s"}, {"measurement": "Elevated Plus Maze: Open arm entries", "setting": "[3]; 0.1 mg/kg i.p.", "result": "13.6 ± 1.6"}, {"measurement": "Elevated Plus Maze: Open arm latency to enter", "setting": "[3]; 0.1 mg/kg i.p.", "result": "10.3 ± 2.7", "unit": "s"}, {"measurement": "Elevated Plus Maze: Open arm latency to exit", "setting": "[3]; 0.1 mg/kg i.p.", "result": "17.7 ± 2.5", "unit": "s"}, {"measurement": "Elevated Plus Maze: Closed arm entries", "setting": "[3]; 1 mg/kg i.p.", "result": "26.4 ± 4.2"}, {"measurement": "Elevated Plus Maze: Closed arm latency to enter", "setting": "[3]; 1 mg/kg i.p.", "result": "2.4 ± 2.1", "unit": "s"}, {"measurement": "Elevated Plus Maze: Closed arm latency to exit", "setting": "[3]; 1 mg/kg i.p.", "result": "11.1 ± 2.6", "unit": "s"}, {"measurement": "Elevated Plus Maze: Open arm entries", "setting": "[3]; 1 mg/kg i.p.", "result": "19.7 ± 3.1"}, {"measurement": "Elevated Plus Maze: Open arm latency to enter", "setting": "[3]; 1 mg/kg i.p.", "result": "10.1 ± 2.9", "unit": "s"}, {"measurement": "Elevated Plus Maze: Open arm latency to exit", "setting": "[3]; 1 mg/kg i.p.", "result": "16.4 ± 3.1", "unit": "s"}, {"measurement": "Elevated Plus Maze: Closed arm entries", "setting": "[3]; 10 mg/kg i.p.", "result": "27.4 ± 7.0"}, {"measurement": "Elevated Plus Maze: Closed arm latency to enter", "setting": "[3]; 10 mg/kg i.p.", "result": "5.3 ± 2.2", "unit": "s"}, {"measurement": "Elevated Plus Maze: Closed arm latency to exit", "setting": "[3]; 10 mg/kg i.p.", "result": "10.6 ± 3.5", "unit": "s"}, {"measurement": "Elevated Plus Maze: Open arm entries", "setting": "[3]; 10 mg/kg i.p.", "result": "20.0 ± 6.1"}, {"measurement": "Elevated Plus Maze: Open arm latency to enter", "setting": "[3]; 10 mg/kg i.p.", "result": "4.6 ± 1.9", "unit": "s"}, {"measurement": "Elevated Plus Maze: Open arm latency to exit", "setting": "[3]; 10 mg/kg i.p.", "result": "11.1 ± 2.1", "unit": "s"}, {"measurement": "EPM time in and entries into open/closed arms", "setting": "[3]; any dose, compared to TAT-Scramble", "result": "neither time spent in the open or closed arms, nor frequency of entries into the open nor closed arms were altered"}]}, {"molecule": "ARSRLAELRGVPRGL (CBD3)", "values": [{"measurement": "formalin-induced flinching, phase 1 and phase 2", "setting": "[4]", "result": "displayed blunted nociceptive behaviors in both phases"}, {"measurement": "paired-pulse ratio (PPR)", "setting": "[5]", "result": "increased pair pulse ratios"}, {"measurement": "interaction between CRMP-2 and L1 or Ct-dis regions of CaV2.2", "setting": "[6]", "result": "disrupted the interaction"}]}]}
